Assay results reported in patent US11701360B2, “Composition for inducing differentiation and protection of neural stem cells and method for inducing neuro-regeneration using the same composition” (GENUV Inc., priority 2017, dated 2023).

Legend:
[1] = test system: mouse embryonic neural stem cells; assay: Morphology analysis (phase-contrast) of NSC differentiation in mouse embryonic neural stem cells; format: cell-based; details: 4 days of culture
Experimental: Neural stem cells were isolated from the brain of a day 14.5 mouse embryo, treated with 10 ng/ml human basic fibroblast growth factor (bFGF) (Peprotech, Princeton, NG, cat #0.100-18B) and 20 ng/ml human epidermal growth factor (EGF) (Peprotech, cat #. AF-100-15) in a N2 culture medium, and cultured in suspension in a 25 cm2 flask (Nunc, Pittsburgh, Pa.) for 4 days. Formation of neurospheres was observed after 2 days.
In order to isolate single cells, 6-well plates were prepared the day before by treating the wells with 15 μg/ml poly-L-ornithine (Sigma, St. Louis, Mo., cat #.P2533) solution and incubating overnight at 37° C. for coating. The day of the single cell isolation, poly-L-ornithine solution was removed, the plates were washed with PBS three times, and 10 μg/ml fibronectin (Gibco, Waltham, Mass., cat #. 33016015) solution was added and incubated at 37° C. for 2 hours for coating.
Various concentrations of the compound of [Formula 1]
FIG. 10b is the analysis of Tuj1 mRNA expression in the cells of each group.

[2] = test system: mouse embryonic neural stem cells; assay: qRT-PCR of neuronal marker mRNA expression in mouse embryonic NSC; format: cell-based
Experimental: Isopropanol (Ducsan, GyunggiDo, Korea, cat #. 67-63-0) was added and mixed for RNA isolation, then centrifuged again to remove the supernatant and obtain the pellet. The RNA pellet was resuspended in 75% ethanol (Ducsan, cat #. 64-17-15), centrifuged, and the supernatant removed. The pellet was then resuspended in sterilized triple distilled water to obtain the mRNA, incubated for 10 minutes at 55° C., and stored at −80° C.
Sterilized triple distilled water, 1 pM oligo dT, and 1 mM dNTP were added to the RNA and incubated for 5 minutes at 65° C. This was followed by the addition of 5× First-strand buffer, 10 mM DTT, and M-MLV reverse transcriptase and incubated at 42° C. for 1 hour, then at 72° C. for 15 minutes, and at 4° C. for 30 minutes. The synthesized cDNA was stored at −20° C.
The term relative mRNA expression level signifies that in order to normalize each group's total RNA level, the mRNA expression level of each differentiation marker is divided by the expression level of GAPDH whose expression level is fairly constant across cells, and then the values of each test material are compared with those of the controls (undifferentiated NSC) in each group.

[3] = test system: 5XFAD mouse; assay: TUNEL assay of apoptosis in brain slices, 5XFAD mouse; format: in vivo; details: orally daily for 28 days; vs vehicle
Experimental: The TUNEL assay stains the 3′-hydroxyl terminus of fragmented DNA, allowing the detection of cells undergoing apoptosis in the tissue.
Specifically, the brain tissue slides were permeabilized with 20 μg/ml proteinase K solution for 10 minutes, incubated with equilibration buffer for 10 minutes, and then incubated with TdT solution at 37° C. for 1 hour.

[4] = test system: MEK 1, MEK2; details: cited from earlier work
[5] = test system: 5XFAD mouse; assay: NeuN immunohistochemical staining of brain slices, 5XFAD AD model mouse; format: in vivo; details: orally daily for 28 days; vs vehicle
Experimental: The mouse was then anesthetized and perfused with PBS for the extraction of the brain. […] The other half of the hemispheres plus another 3 extracted mice brains per group were placed in 10% formalin solution at 4° C. for 1 day, which was then followed with the proceeding steps to allow good penetration of paraffin into the brain tissue. The brain tissues were immersed sequentially in 70%, 80%, 95%, 100% alcohol for 1 hour each for dehydration, then immersed in xylene 3 times for 1 hour each for clearing, and embedded in paraffin by placing in liquid paraffin 2 times for 1 hour each. After these procedures, the paraffin-embedded brain tissue (paraffin block) was cut into 5 μm sections, mounted on slides, and stored at room temperature. […]
FIG. 13b indicates the number of NeuN stained cells counted and represented as the percentage of the number of cells per unit area in the motor cortex layer 5 region. Area samples were taken from 6 areas per mouse, 3 mice per group, so the number of cells counted was from a total of 18 areas.
FIG. 14b indicates the number of NeuN stained cells counted and represented as the percentage of the number of cells per unit area in the dotted area of the hippocampal subiculum shown in FIG. 14a. Area samples were taken from 3 areas per mouse, 3 mice per group, so the number of cells counted was from a total of 9 areas.

[6] = test system: mouse embryonic neural stem cells; assay: Immunocytochemistry analysis (Tuj1/DAPI staining); format: cell-based; details: 10 nM; 4 days
Experimental: Tuj1 (Neuron specific class III beta-tubulin) is a neuron specific marker protein, which was conjugated to rhodamine to show fluorescent red, while DAPI binds to the cell DNA and stains the cell nuclei fluorescent blue. […] The medium was removed and the cells were washed with PBS. After fixing with 10% formaldehyde (Sigma cat #. HT501128) at room temperature for 10 minutes, they were washed again with PBS. They were permeabilized with 0.2% Triton X-100 (Sigma, cat #. 93443) at room temperature for 15 minutes, washed with PBS, and incubated with 10% BSA (Sigma, cat #. A2153)+1% normal goat serum (Vector lab, Burlingame, Calif., cat #. S1000) at room temperature for 1 hour. […] The solution was removed, washed with PBS, and incubated at room temperature for 1 hour with the secondary antibody (rhodamine-conjugated antibody) diluted in 1% BSA+1% normal goat serum at a ratio of 1:200. Then, the cells were washed with PBS, incubated with 5 μg/ml DAPI (Sigma, cat #. D9542) for 5 minutes, washed with PBS again, and mounted on a slide glass for analysis with a fluorescent microscope.

[7] = test system: mouse adult neural stem cells; assay: qRT-PCR of neuronal marker mRNA expression in mouse adult NSC; format: cell-based; details: 10 nM; 2 days
[8] = test system: Aβ(1-40) and Aβ(1-42); assay: ELISA of Aβ(1-40) and Aβ(1-42) in brain hemispheres, 5XFAD mouse; format: in vivo; details: orally daily for 28 days; vs vehicle
[9] = test system: pERK; assay: Western blotting of pERK in brain hemispheres, 5XFAD mouse; format: in vivo; details: 0.1 mg/kg and 1.0 mg/kg PO; vs vehicle
[10] = test system: mouse adult neural stem cells; details: 10 nM and 100 nM; regardless of 10 μM amyloid-beta; 4 days
Experimental: NSC were isolated from the subventricular zone of week 8 mouse brain, treated with 20 ng/ml human basic fibroblast growth factor (bFGF) and 20 ng/ml human epidermal growth factor (EGF) in an IPM medium, and cultured as a suspension in 24-well plates for 7 days.
Two days before the isolation of single cells, 6-well plates were prepared by treating the wells with 10 μg/ml poly-L-ornithine solution and incubating overnight at room temperature for coating. The next day, poly-L-ornithine solution was removed and the plates were washed 3 times with sterilized triple distilled water. […] The culture solution used is N2 culture medium (supplemented with 20 ng/ml bFGF and 20 ng/ml EGF). Right before seeding, the coating solution was suctioned out, and the single cells were uniformly seeded into the culture plate before the plate dried up. Cells were allowed to attach to the plates for about one minute, and after checking that cells were sufficiently attached, an additional 1.5 ml of culture medium (N2 culture medium with 20 ng/ml bFGF and 20 ng/ml EGF) was added to the cells and cultured in a 37° C. incubator for 24 hours.
Wells not treated with amyloid-beta were left to use as negative controls.
Gibco's (Waltham, Mass.) human Aβ (1-42) was purchased to use for the amyloid-beta (Aβ), and the following process was followed to create oligomers. […] Then, it was dried for 10 minutes in a speed Vac, after which DMSO (Sigma, cat #.D2650) was added to bring the concentration to 5 mM and then lightly vortexed at room temperature for 10 minutes. […] The solution was incubated at 4° C. for 24 hours and then added into the cultured cells.
The NCSs were cultured with the daily addition of EGF, bFGF, amyloid-beta, and test materials for 4 days.

[11] = test system: 5XFAD mouse; assay: Tuj1 and calbindin staining of cerebellar Purkinje cells, 5XFAD mouse; format: in vivo; details: particularly 0.1 mg/kg; vs vehicle
Source text: Two slides for Tuj1 staining and three for calbindin staining are shown for each treatment group.

[12] = test system: 5XFAD mouse; assay: Tuj1 staining in the somatosensory cortex, 5XFAD mouse; format: in vivo
Experimental: Anti-Tuj1 antibodies were added to the brain tissue slides of 5XFAD mouse in Example 8 and incubated at 4° C. for 1 day, after which the tissue slides were fluorescently stained by incubating with Fluorescein isothiocyanate (FITC)-secondary antibodies (Invitrogen, cat #. A21121) at room temperature for 1 hour. In FIG. 15, the areas marked with arrows (→) indicate cells stained with Tuj1 and the areas marked with arrowheads (▾) indicate plaques formed by amyloid-beta aggregation. Plaques were present in both vehicle-treated and trametinib-treated groups.

[13] = test system: 5XFAD mouse; assay: Nissl, NeuN and DCX staining in the hippocampal dentate gyrus, 5XFAD mouse; format: in vivo; details: orally daily for 28 days
Experimental: After placing in 0.1% cresyl violet (Sigma, cat #. C5042) solution at room temperature for 15 minutes, they were dehydrated by sequentially immersing in 80%, 90%, 100% alcohol, and xylene. Coverslips were put on the slides and the neurons examined.
NeuN staining was performed by the same method as described in Example 8 as was DCX staining, but using anti-DCX antibodies (Santa Cruz, cat #. sc271390) instead of anti-NeuN antibodies.

[14] = test system: 5XFAD mouse; assay: BrdU staining in the hippocampal dentate gyrus, 5XFAD mouse; details: orally daily for 28 days; vs vehicle
Experimental: For the BrdU staining to be performed later, 50 mg/kg of BrdU (Sigma, cat #. B5002) was added to the daily dose for the last 5 days. The mouse was then anesthetized and perfused with PBS for the extraction of the brain. […] The other half of the hemispheres plus another 3 extracted mice brains per group were placed in 10% formalin solution at 4° C. for 1 day, which was then followed with the proceeding steps to allow good penetration of paraffin into the brain tissue. The brain tissues were immersed sequentially in 70%, 80%, 95%, 100% alcohol for 1 hour each for dehydration, then immersed in xylene 3 times for 1 hour each for clearing, and embedded in paraffin by placing in liquid paraffin 2 times for 1 hour each. After these procedures, the paraffin-embedded brain tissue (paraffin block) was cut into 5 μm sections, mounted on slides, and stored at room temperature. Prior to immunohistochemical staining, the tissues on the slides were rehydrated by sequentially immersing in xylene, 100%, 90%, 80%, 70%, 50% alcohol, and then water for 5 minutes each. […] The next day, the slides were incubated with anti-rabbit antibodies (Vector lab, cat #. PI-1000) at room temperature for 1 hour and then stained with DAB staining for the analysis of the neuronal distribution in the brain.

[15] = 1 nM, 10 nM, 25 nM, 100 nM, 2 days

CC(=O)Nc1cccc(-n2c(=O)n(C3CC3)c(=O)c3c(Nc4ccc(I)cc4F)n(C)c(=O)c(C)c32)c1 [trametinib, N-(3-{3-cyclopropyl-5-[(2-fluoro-4-iodophenyl)amino]-6,8-dimethyl-2,4,7-trioxo-3,4,6,7-tetrahydropyrido[4,3-d]pyrimidin-1(2H)-yl}phenyl)acetamide]
differentiation of NSC into neurons (morphology) ([1]; 10 nM, 25 nM and 100 nM): readily induced the differentiation of NSC into neurons
concentration at which differentiation of NSC into neurons is seen [1]: ≥ 10 nM
mRNA expression of GABAergic neuron marker Gad1 [2, 15]: increased with the increase in concentration
mRNA expression of cholinergic neuron marker ChAT [2, 15]: increased with the increase in concentration
mRNA expression of dopaminergic neuron marker TH [2, 15]: increased with the increase in concentration
mRNA expression of motor neuron marker Isl1 [2, 15]: increased with the increase in concentration
concentration at which differentiation-inducing effect is exerted (Tuj1, TH mRNA) ([2]; 4 days): 1 nM
number of TUNEL stained cells in somatosensory cortex and subiculum [3]: significantly lower
IC50 [4]: 0.92 to 3.4 nM
number of NeuN stained neurons, hippocampal subiculum [5]: significant increase in the number of neurons
number of NeuN stained neurons, motor cortex layer 5 [5]: significant increase in the number of neurons
neuron differentiation (Tuj1 staining) [6]: increasingly active differentiation activity
mRNA expression of cholinergic neuron marker ChAT [7]: increased
mRNA expression of dopaminergic neuron marker TH [7]: increased
mRNA expression of neuronal marker Tuj1 [7]: increased
amount of Aβ(1-42)/Aβ(1-40) in brain [8]: decreased
protein level of pERK in the brain [9]: considerably lower
differentiation of NSC into neurons (morphology) [10]: readily induced the differentiation of NSC into neurons
axon structure of cerebellar Purkinje cells [11]: increased axon arborization or at least with preserved axon structure
lowest dose showing neural stem cell differentiation-inducing activity [12]: 0.1 mg/kg/day
immature neurons stained by DCX in dentate gyrus [13]: seen to be present
number of cells with Type 2 or Type 3 morphology in dentate gyrus (Nissl and NeuN staining) [13]: increased considerably
number of cells stained with BrdU in the dentate gyrus [14]: an increase in the number of cells stained with BrdU
